In ChEMBL document CHEMBL3137667, “[Drug-induced liver injury; fourteenth updated edition of the bibliographic database of liver injuries and related drugs]” (Gastroenterol Clin Biol, 2004):

Tests used:
[1] = Highest frequency of moderate liver toxicity observed during clinical trials, expressed as a percentage. [column '% BIOL' in source]; settings: human
[2] = human
[3] = human; remark: listed apart in the source
[4] = human, serum, 4383 h
[5] = human, serum
[6] = human; remark: listed apart in the source
[7] = Highest frequency of acute liver toxicity observed during clinical trials, expressed as a percentage. [column '% AIGUE' in source]; settings: human
[8] = human; remark: listed apart in the source
[9] = human; remark: listed apart in the source
[10] = human; remark: listed apart in the source
[11] = human; remark: listed apart in the source
[12] = human, serum; remark: listed apart in the source
[13] = human; remark: listed apart in the source
[14] = human; remark: listed apart in the source
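Throughout, for Hepatotoxicity (association with vascular disease): count of indexed literature references reporting vascular liver injury in humans, e.g. peliosis hepatitis, hepatic veno-occlusive disease or Budd-Chiari syndrome.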
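Throughout, for Hepatotoxicity (benign tumour): value is a count of indexed literature references citing a benign tumour confirmed by histopathology.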
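Throughout, for Hepatotoxicity (choleostasis): human cholestatic liver injury, shown by histopathology or by peak ALT or AST elevation over alkaline phosphatase ratio below 2, value counts indexed literature reports.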
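Throughout, for Hepatotoxicity (chronic liver disease): chronic liver injury confirmed by histopathology or persistently raised serum aminotransferase activity beyond 6 months, value given as the count of indexed literature references.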
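Throughout, for Hepatotoxicity (cirrhosis): value is a count of indexed literature references reporting cirrhosis confirmed by histopathology.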
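Throughout, for Hepatotoxicity (cytolytic): human cytolytic liver injury, shown by histopathology or by a ratio above 5 of peak ALT or AST elevation to alkaline phosphatase elevation, value counts indexed references.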
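Throughout, for Hepatotoxicity (granulomatous hepatitis): value is a count of indexed literature references reporting granulomatous liver disease confirmed by histopathology.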
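Throughout, for Hepatotoxicity (malignant tumour): malignant tumour confirmed by histopathology, value gives the count of indexed literature references reporting it.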
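Throughout, for Hepatotoxicity (severe hepatitis): human clinical data: severe hepatitis, meaning potentially life-threatening liver failure or clinically observed cases, the value counts how many indexed literature references report it.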
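Throughout, for Hepatotoxicity (steatosis): steatosis confirmed by histopathology, value is the count of indexed references.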

SMILES | Hepatotoxicity (moderate) [1] [%] | Hepatotoxicity (association with vascular disease) [2] | Hepatotoxicity (granulomatous hepatitis) [3] | Hepatotoxicity (chronic liver disease) [4] | Hepatotoxicity (acute) [5] | Hepatotoxicity (steatosis) [6] | Hepatotoxicity (acute) [7] [%] | Hepatotoxicity (choleostasis) [8] | Hepatotoxicity (cirrhosis) [9] | Hepatotoxicity (cytolytic) [10] | Hepatotoxicity (severe hepatitis) [11] | Hepatotoxicity (moderate) [12] | Hepatotoxicity (malignant tumour) [13] | Hepatotoxicity (benign tumour) [14] | Hepatotoxicity (moderate) ([1]; Liver) [%] | Hepatotoxicity (granulomatous hepatitis) ([3]; Liver) | Hepatotoxicity (acute) ([7]; Liver) [%] | Hepatotoxicity (choleostasis) ([8]; Liver) | Hepatotoxicity (cytolytic) ([10]; Liver) | Hepatotoxicity (severe hepatitis) ([11]; Liver)
C[C@H]1C[C@H]2[C@@H]3CCC4=CC(=O)C=C[C@]4(C)[C@@]3(F)[C@@H](O)C[C@]2(C)[C@@]1(O)C(=O)CO [BETAMETHASONE] | 0 | 0 | 0 | 0 | 0 | 1 | 0 | 0 | 0 | 0 | 0 | 0 | 0 | 0 |  |  |  |  |  | 
C[C@@H](O)[C@H]1C(=O)N2C(C(=O)[O-])=C(SC3Cn4cnc[n+]4C3)[C@H](C)[C@H]12 (some centres undefined) [BIAPENEM] | 40 | 0 | 0 | 0 | 0 | 0 | 0 | 0 | 0 | 0 | 0 | 56 | 0 | 0 |  |  |  |  |  | 
C(=N\NC1=NCCN1)/c1c2ccccc2c(/C=N/NC2=NCCN2)c2ccccc12 [BISANTRENE] | 49 | 0 | 0 | 0 | 1 | 0 | 0 | 1 | 0 | 0 | 0 | 4 | 0 | 0 |  |  |  |  |  | 
CC(C)NCC(O)COc1ccc(COCCOC(C)C)cc1 (centres undefined) [BISOPROLOL] | 7.1 | 0 | 0 | 0 | 0 | 0 | 0 | 0 | 0 | 0 | 0 | 3 | 0 | 0 |  |  |  |  |  | 
CN(Cc1cc(Br)cc(Br)c1N)C1CCCCC1 [BROMHEXINE] | 0 | 0 | 0 | 0 | 0 | 0 | 0 | 0 | 0 | 0 | 0 | 1 | 0 | 0 |  |  |  |  |  | 
Nc1nc(-c2ccccc2)c(Br)c(=O)[nH]1 [BROPIRIMINE] |  | 0 |  | 0 | 0 | 0 |  |  | 0 |  |  | 1 | 0 | 0 | 3.1 | 0 | 0 | 0 | 0 | 0
